Consider 2 compounds from US20090264379A1, “Stable aqueous solution of a polyene fungicide” (DSM IP ASSETS B.V., priority 2003, published 2009).

Data set [1] can be described thus: Rest activity (stability) of completely dissolved natamycin in aqueous SDS solution over time, HPLC. The note with it: 1000 ppm natamycin added, 1% SDS. It is filed as physicochemical. How it is done:
This method was used to analyze the amount of
active natamycin in a water-based mixture of several components. The method was HPLC based using the International Dairy Federation (Provisional ADF Standard 140, 1987) with a Lichrosorb RP 8 column. Detection was by UV at 303 nm with a range of 0.1-4 mg/L with an injection volume of 20 μl. Sample preparation was carried out by weighing 2 gram prepared formulation with an accuracy of 1 mgram in a measuring flask. 4 ml demineralized water (demiwater) was added and the mixture was stirred for 15 minutes to get a homogeneous suspension. Subsequently 80 ml ethanol was added and the mixture was stirred for 10 minutes. After ultrasonic treatment the solution was filled up to 100 ml with de-minaralized water and then diluted and/or filtered (0.2 μm) before injecting. The amount of active natamycin was calculated as ppm against a series of standards of known natamycin concentrations.
The mixtures were made by adding 2 gram Delvocid (Natamycin) together with 50 gram 20% SDS solution and eventually additives to a final weight of 1000 gram with demineralised (=demi) water.
This crude mixture was mixed for 5 minutes to obtain a homogeneous mixture and accordingly adjusted to pH 4-6 with ammonia.
The obtained formulations with an added amount of active natamycin of 1000 ppm were stored at 18° C. in a closed pot in the dark.
The prepared mixtures were measured over time for the amount of active natamycin using the analytical method as described hereinabove.
The mixture as described in Example 1 was adjusted to pH=4.0 or pH=6.0 and the natamycin activity was measured over time.
The mixture as described in Example 1 is combined with 1000 ppm di-sodium-EDTA, adjusted to pH 6.0 and the natamycin activity was measured over time.

The nature of data set [2]: Visual solubility of polyene fungicides in water and water + SDS. In kind it is physicochemical. The note with it: soluble if mixture is clear. Here is the method: Mixtures are made with several polyene fungicides in several concentrations The used polyene fungicides are nystatin, amphotericin and natamycin. The solubility rate is measured visually of the polyene fungicides in demineralized water as such or according to example 1 in combination with SDS to a final SDS concentration of 1% (w/w). It is soluble if a mixture is clear after one minute stirring at room temperature.

Each structure is given as a SMILES string.

As to `C[C@@H]1C/C=C/C=C/C=C/C=C/[C@H](O[C@@H]2O[C@H](C)[C@@H](O)[C@H](N)[C@@H]2O)C[C@@H]2O[C@](O)(C[C@@H](O)C[C@H]3O[C@@H]3/C=C/C(=O)O1)C[C@H](O)[C@H]2C(=O)O` [Natamycin, natamycin], the “Rest activity of completely dissolved natamycin over time” value is listed as less than 0.1 ppm in data set [1] (pH = 4.0, 3 weeks, stored at 18° C. in the dark); less than 0.1 ppm in data set [1] (pH = 4.0, 9 weeks, stored at 18° C. in the dark); 672 ppm in data set [1] (pH = 4.0, 1 day, stored at 18° C. in the dark); 805 ppm in data set [1] (pH = 6.0 + Na2EDTA (1000 ppm di-sodium-EDTA), 3 weeks, 18° C. dark); 560 ppm in data set [1] (pH = 6.0 + Na2EDTA (1000 ppm di-sodium-EDTA), 9 weeks, 18° C. dark); 1000 ppm in data set [1] (pH = 6.0 + Na2EDTA (1000 ppm di-sodium-EDTA), 1 day, 18° C. dark). Besides, the “Rest activity of completely dissolved natamycin over time” value in data set [1] (pH = 6.0, 3 weeks, stored at 18° C. in the dark) stood at 444 ppm; in data set [1] (pH = 6.0, 9 weeks, stored at 18° C. in the dark) it was 57 ppm; in data set [1] (pH = 6.0, 1 day, stored at 18° C. in the dark), 988 ppm.

In the case of `C[C@@H]1[C@H](O)[C@@H](C)/C=C/C=C/CC/C=C/C=C/C=C/C=C/C(O[C@H]2O[C@H](C)[C@@H](O)[C@H](N)[C@@H]2O)CC2O[C@](O)(CC(O)C(O)CCC(O)CC(O)CC(O)CC(=O)O[C@H]1C)CC(O)C2C(=O)O` (stereo partly shown) [Nystatin], the “Solublized after 1 minute stirring at room temperature” value in data set [2] (250 ppm polyene fungicide in final mixture, solvent 1% (w/w) SDS) is “Yes”; in data set [2] (250 ppm polyene fungicide in final mixture, solvent Demi-Water) it was “No”; in data set [2] (500 ppm polyene fungicide in final mixture, solvent 1% (w/w) SDS), “Almost”; in data set [2] (1000 ppm polyene fungicide in final mixture, solvent 1% (w/w) SDS) it was “No”.
